Test results: patent US10428082B2, “Triazole derivatives of melampomagnolide B and methods of use thereof” (BioVentures, LLC, priority 2016, dated 2019)
pEC50: −log10 of the molar value. Read-outs that look alike come from different tables or passages of the source.

Columns and labels:
M9 ENL1 cell line = assay: Anti-leukemic activity, Annexin V/7-AAD flow cytometry; type: cell-based; details: 24 h of drug exposure, read-out: M9ENL1 (EC50)
Description: The newly synthesized triazole derivatives of melampomagnolide B were screened for anti-leukemic activity against M9 ENL1 and primary AML cell lines; the latter were obtained with informed consent from human patients. Evaluations were performed after 24 h of drug exposure using flow cytometric analysis by labeling with Annexin V and 7-aminoactinomycin D (7-AAD) to delineate apoptotic cell populations. In all experiments PTL was included as a reference control.

786-0 = assay: NCI 60 growth inhibition; type: cell-based, human; details: 786-0, Renal Cancer
Description: (§1) The above triazole derivatives of melampomagnolide B were evaluated for growth inhibitory properties against an NCI panel of 60 human cancer cell lines derived from nine human cancer cell types, grouped into disease sub-panels that represent leukemia, lung, colon, central nervous system (CNS), melanoma, renal, ovary, breast, and prostate cancer cells. Growth inhibitory (GI50) effects were measured as a function of the variation of optical density as a percentage of control.

CAKI-1 = assay: NCI 60 growth inhibition; type: cell-based, human; details: CAKI-1, Renal Cancer
Description: as §1

CCRF-CEM = assay: NCI 60 growth inhibition; type: cell-based, human; details: Leukemia
Description: as §1

COLO 205 = assay: NCI 60 growth inhibition; type: cell-based, human; details: COLO 205, Colon Cancer
Description: as §1

DU-145 = assay: NCI 60 growth inhibition; type: cell-based, human; details: DU-145, Prostate Cancer
Description: as §1

EKVX = assay: NCI 60 growth inhibition; type: cell-based, human; details: Non-Small Cell Lung Cancer
Description: as §1

HCC-2998 = assay: NCI 60 growth inhibition; type: cell-based, human; details: HCC-2998, Colon Cancer
Description: as §1

HCT-116 = assay: NCI 60 growth inhibition; type: cell-based, human; details: HCT-116, Colon Cancer
Description: as §1

HL-60(TB) = assay: NCI 60 growth inhibition; type: cell-based, human; details: Leukemia
Description: as §1

HOP-62 = assay: NCI 60 growth inhibition; type: cell-based, human; details: HOP-62, Non-Small Cell Lung Cancer
Description: as §1

HOP-92 = assay: NCI 60 growth inhibition; type: cell-based, human; details: HOP-92, Non-Small Cell Lung Cancer
Description: as §1

HS 578T = assay: NCI 60 growth inhibition; type: cell-based, human; details: Breast Cancer
Description: as §1

IGROV1 = assay: NCI 60 growth inhibition; type: cell-based, human; details: IGROV1, Ovarian Cancer
Description: as §1

K-562 = assay: NCI 60 growth inhibition; type: cell-based, human; details: K-562, Leukemia
Description: as §1

MALME-3M = assay: NCI 60 growth inhibition; type: cell-based, human; details: Melanoma
Description: as §1

MDA-MB-231/ATCC = assay: NCI 60 growth inhibition; type: cell-based, human; details: Breast Cancer
Description: as §1

MDA-MB-435 = assay: NCI 60 growth inhibition; type: cell-based, human; details: MDA-MB-435, Melanoma
Description: as §1

MDA-MB-468 = assay: NCI 60 growth inhibition; type: cell-based, human; details: MDA-MB-468, Breast Cancer
Description: as §1

MOLT-4 = assay: NCI 60 growth inhibition; type: cell-based, human; details: MOLT-4, Leukemia
Description: as §1

NCI-H226 = assay: NCI 60 growth inhibition; type: cell-based, human; details: NCI-H226, Non-Small Cell Lung Cancer
Description: as §1

NCI-H23 = assay: NCI 60 growth inhibition; type: cell-based, human; details: NCI-H23, Non-Small Cell Lung Cancer
Description: as §1

NCI-H322M = assay: NCI 60 growth inhibition; type: cell-based, human; details: Non-Small Cell Lung Cancer
Description: as §1

NCI-H460 = assay: NCI 60 growth inhibition; type: cell-based, human; details: NCI-H460, Non-Small Cell Lung Cancer
Description: as §1

NCI/ADR-RES = assay: NCI 60 growth inhibition; type: cell-based, human; details: Ovarian Cancer
Description: as §1

OVCAR-3 = assay: NCI 60 growth inhibition; type: cell-based, human; details: OVCAR-3, Ovarian Cancer
Description: as §1

PC-3 = assay: NCI 60 growth inhibition; type: cell-based, human; details: PC-3, Prostate Cancer
Description: as §1

RPMI-8226 = assay: NCI 60 growth inhibition; type: cell-based, human; details: RPMI-8226, Leukemia
Description: as §1

RXF 393 = assay: NCI 60 growth inhibition; type: cell-based, human
Description: as §1

SF-268 = assay: NCI 60 growth inhibition; type: cell-based, human; details: SF-268, CNS Cancer
Description: as §1

SK-MEL-28 = assay: NCI 60 growth inhibition; type: cell-based, human; details: SK-MEL-28, Melanoma, Table 3
Description: as §1

SK-MEL-2 = assay: NCI 60 growth inhibition; type: cell-based, human; details: SK-MEL-2, Melanoma
Description: as §1

SK-OV-3 = assay: NCI 60 growth inhibition; type: cell-based, human; details: SK-OV-3, Ovarian Cancer
Description: as §1

SW-620 = assay: NCI 60 growth inhibition; type: cell-based, human; details: SW-620, Colon Cancer
Description: as §1

T-47D = assay: NCI 60 growth inhibition; type: cell-based, human; details: Breast Cancer
Description: as §1

[1] = system: NCI panel of 60 human cancer cell lines; assay: NCI 60 growth inhibition, ranges over groups of cell lines; type: cell-based; details: several cell lines in the panel, read-out: GI50
Description: as §1

With `C=C1C(=O)O[C@H]2[C@H]1CC/C(Cn1cc(-c3ccccc3C(F)(F)F)nn1)=C\CC[C@@]1(C)O[C@@H]21` [JVM 4-59] the pEC50 (M9 ENL1 cell line) was 5.41, the GI50 (786-0; Table 3) was 1.84 µM and the GI50 (CAKI-1; Table 3) was 1.31 µM. It also gave a GI50 (CCRF-CEM; Table 3) of 0.76 µM, a GI50 (COLO 205; Table 3) of 1.98 µM and a GI50 (DU-145; Table 3) of 1.42 µM. For the same compound, the GI50 (EKVX; Table 3) was 2.32 µM, the GI50 (HCC-2998; Table 3) was 1.85 µM and the GI50 (HCT-116; Table 3) was 1.26 µM. It also gave a GI50 (HL-60(TB); HL-60 (TB), Table 3) of 2.58 µM, a GI50 (HOP-62; Table 3) of 4.73 µM and a GI50 (HOP-92; Table 3) of 1.48 µM. The GI50 (HS 578T; Table 3) was 3.57 µM, the GI50 (IGROV1; Table 3) was 1.81 µM and the GI50 (K-562; Table 3) was 2.4 µM. It also gave a GI50 (MALME-3M; Table 3) of 1.7 µM, a GI50 (MDA-MB-231/ATCC; Table 3) of 1.64 µM and a GI50 (MDA-MB-435; Table 3) of 2.18 µM. For the same compound, the GI50 (MDA-MB-468; Table 3) was 1.14 µM, the GI50 (MOLT-4; Table 3) was 3.03 µM and the GI50 (NCI-H226; Table 3) was 1.73 µM. It also gave a GI50 (NCI-H23; Table 3) of 1.75 µM, a GI50 (NCI-H322M; Table 3) of 10.8 µM and a GI50 (NCI-H460; Table 3) of 3.97 µM. For the same compound, the GI50 (NCI/ADR-RES; Table 3) was 2.99 µM, the GI50 (OVCAR-3; Table 3) was 1.04 µM and the GI50 (PC-3; Table 3) was 4.32 µM. For the same compound, the GI50 (RPMI-8226; Table 3) was 1.87 µM, the GI50 (RXF 393; RXF 393, Renal Cancer, Table 3) was 1.07 µM and the GI50 (SF-268; Table 3) was 2.09 µM. For the same compound, the GI50 (SK-MEL-28) was 1.75 µM, the GI50 (SK-MEL-2; Table 3) was 2.45 µM and the GI50 (SK-OV-3; Table 3) was 17.3 µM. The GI50 (SW-620; Table 3) was 1.24 µM and the GI50 (T-47D; Table 3) was 1.7 µM.

In the case of `C=C1C(=O)O[C@H]2[C@H]1CC/C(Cn1cc(CCC)nn1)=C\CC[C@@]1(C)O[C@@H]21` [JVM 4-16, (1aR,7aS,10aS,10bS,E)-1a-Methyl-8-methylene-5((4-propyl-1H-1,2,3-triazol-1-yl)methyl)-2,3,6,7,7a,8,10a,10b-octahydrooxireno[2′,3′:9,10]cyclodeca[1,2-b]furan-9(1aH)-one], the pEC50 (M9 ENL1 cell line; M9-ENL1, 24 h) was 5.26, the GI50 (786-0; Homo sapiens, Table 2) was 11.3 µM and the GI50 (CAKI-1; Homo sapiens, Table 2) was 3.91 µM. The GI50 (CCRF-CEM; Homo sapiens, Table 2) was 3 µM, the GI50 (COLO 205; Homo sapiens, Table 2) was 5.22 µM and the GI50 (DU-145; Homo sapiens, Table 2) was 4.32 µM. For the same compound, the GI50 (EKVX; Homo sapiens, Table 2) was 11.5 µM, the GI50 (HCC-2998; Homo sapiens, Table 2) was 15.1 µM and the GI50 (HCT-116; Homo sapiens, Table 2) was 3.98 µM. It also gave a GI50 (HL-60(TB); Homo sapiens, HL-60(TB), Table 2) of 3.53 µM, a GI50 (HOP-62; Homo sapiens, Table 2) of 14.1 µM and a GI50 (HOP-92; Homo sapiens, Table 2) of 2.94 µM. The GI50 (HS 578T; Homo sapiens, Table 2) was 23.4 µM, the GI50 (IGROV1; Homo sapiens, IGROV-1, Table 2) was 4.63 µM and the GI50 (K-562; Homo sapiens, K562, Table 2) was 3.96 µM. The GI50 (MALME-3M; Homo sapiens, Table 2) was 4.7 µM, the GI50 (MDA-MB-231/ATCC; Homo sapiens, Table 2) was 4.22 µM and the GI50 (MDA-MB-435; Homo sapiens, Table 2) was 10.4 µM. The GI50 (MDA-MB-468; Homo sapiens, Table 2) was 3.65 µM, the GI50 (MOLT-4; Homo sapiens, Table 2) was 5.54 µM and the GI50 (NCI-H226; Homo sapiens, Table 2) was 12.6 µM. The GI50 (NCI-H23; Homo sapiens, Table 2) was 13.6 µM, the GI50 (NCI-H322M; Homo sapiens, Table 2) was 21.5 µM and the GI50 (NCI-H460; Homo sapiens, Table 2) was 21.2 µM. The GI50 (NCI/ADR-RES; Homo sapiens, Table 2) was 15.2 µM, the GI50 (OVCAR-3; Homo sapiens, Table 2) was 3.96 µM and the GI50 (PC-3; Homo sapiens, Table 2) was 14.9 µM. For the same compound, the GI50 (RPMI-8226; Homo sapiens, Table 2) was 5.52 µM, the GI50 (RXF 393; Homo sapiens, RXF 393, RXF 393, Renal Cancer, Table 2) was 4.8 µM and the GI50 (SF-268; Homo sapiens, Table 2) was 13.7 µM. It also gave a GI50 (SK-MEL-2; Homo sapiens, Table 2) of 16.3 µM, a GI50 (SK-OV-3; Homo sapiens, Table 2) of 26 µM and a GI50 (SW-620; Homo sapiens, Table 2) of 4.23 µM. The GI50 (T-47D; Homo sapiens, T47D, Table 2) was 4.11 µM and the GI50 [1] was < 5 µM.
